Earlier results as cited in US20180353602A1, “COMBINATION OF HDAC INHIBITOR AND ANTI-PD-L1 ANTIBODY FOR TREATMENT OF CANCER” (Syndax Pharmaceuticals, Inc., priority 2015, published 2018).
Read-outs that look alike come from different tables or passages of the source.

What was measured:
[1] = in vivo
[2] = tested on: squamous or non-squamous non small cell lung cancer (NSCLC); conditions: ≤1, 10, 15, and 25 mg/kg every 3 weeks for up to 1 year

Nc1ccccc1NC(=O)c1ccc(CNC(=O)OCc2cccnc2)cc1 [Entinostat, N-(2-aminophenyl)-4-[N-(pyridine-3-yl)methoxycarbonylamino-methyl]-benzamide]
half-life [1]: about 100 hours

MPDL3280A: human anti-PD-L1 mAb directed against the protein ligand PD-L1, with an engineered Fc domain minimizing ADCC
24-week progression free survival (PFS) rate ([2]; non-squamous cell NSCLC patients): 46% | 24-week progression free survival (PFS) rate ([2]; squamous cell NSCLC patients): 44%
